Assay results reported in article PMC9621233, “4-Cyanamidobenzenesulfonamide derivatives: a novel class of human and bacterial carbonic anhydrase inhibitors” (Journal of Enzyme Inhibition and Medicinal Chemistry, 2022).

Legend:
Test in all cases: stopped-flow CO2 hydration assay, phenol red
hCA I = target: T1, hCA I (Homo sapiens, UniProt P00915); format: biochemical; conditions: read-out: KI (nM)^a / hCA I (α-CA)
T1 construct: gene CA1; recombinant, obtained in-house; cytosolic alpha-CA
Description: stopped-flow CO2 hydration assay, phenol red on hCA I

MscCA = target: T2, MscCA; format: biochemical, Mammaliicoccus sciuri; conditions: […] TRIS pH […] Na2SO4, […] h preincubation, room temperature; read-out: KI (nM)^a / MscCA (β-CA)
T2 construct: recombinant beta-CA, obtained in-house; earlier published as SauCA

StCA1 = target: T3, StCA1; format: biochemical, Salmonella enterica subsp. enterica serovar Typhimurium; conditions: […] TRIS pH […] Na2SO4, […] h preincubation, room temperature; read-out: KI (nM)^a / StCA1 (β-CA)
T3 construct: recombinant beta-CA, obtained in-house

hCA II = target: T4, hCA II (Homo sapiens, UniProt P00918); format: biochemical; conditions: read-out: KI (nM)^a / hCA II (α-CA)
T4 construct: gene CA2; recombinant, obtained in-house; cytosolic alpha-CA
Description: stopped-flow CO2 hydration assay, phenol red on hCA II

hCA VII = target: T5, hCA VII (Homo sapiens, UniProt P43166); format: biochemical; conditions: read-out: KI (nM)^a / hCA VII (α-CA)
T5 construct: gene CA7; recombinant, obtained in-house; cytosolic alpha-CA
T5 sequence (P43166 whole entry): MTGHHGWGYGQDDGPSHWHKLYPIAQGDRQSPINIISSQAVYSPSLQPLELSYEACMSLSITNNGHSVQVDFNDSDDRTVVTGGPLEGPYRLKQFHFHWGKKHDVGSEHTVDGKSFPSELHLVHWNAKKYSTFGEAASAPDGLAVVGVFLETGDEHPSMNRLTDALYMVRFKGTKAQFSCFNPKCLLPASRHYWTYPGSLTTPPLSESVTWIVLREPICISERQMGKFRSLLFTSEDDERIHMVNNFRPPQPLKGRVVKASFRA
Description: stopped-flow CO2 hydration assay, phenol red on hCA VII

StCA2 = target: T6, StCA2; format: biochemical, Salmonella enterica subsp. enterica serovar Typhimurium; conditions: […] TRIS pH […] Na2SO4, […] h preincubation, room temperature; read-out: KI (nM)^a / StCA2 (β-CA)
T6 construct: recombinant beta-CA, obtained in-house

hCA XIII = target: T7, hCA XIII (Homo sapiens, UniProt Q8N1Q1); format: biochemical; conditions: read-out: KI (nM)^a / hCA XIII (α-CA)
T7 construct: gene CA13; recombinant, obtained in-house; cytosolic alpha-CA
T7 sequence (Q8N1Q1 whole entry): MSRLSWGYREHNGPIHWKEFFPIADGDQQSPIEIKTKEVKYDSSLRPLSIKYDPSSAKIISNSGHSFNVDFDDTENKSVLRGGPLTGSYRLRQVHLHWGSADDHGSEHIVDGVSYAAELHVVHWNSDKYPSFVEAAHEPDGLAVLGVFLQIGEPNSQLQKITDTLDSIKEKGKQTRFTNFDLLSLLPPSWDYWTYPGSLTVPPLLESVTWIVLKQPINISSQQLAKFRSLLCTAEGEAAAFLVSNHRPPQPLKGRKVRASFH
Description: stopped-flow CO2 hydration assay, phenol red on hCA XIII

T1 sequence (P00915 2-261): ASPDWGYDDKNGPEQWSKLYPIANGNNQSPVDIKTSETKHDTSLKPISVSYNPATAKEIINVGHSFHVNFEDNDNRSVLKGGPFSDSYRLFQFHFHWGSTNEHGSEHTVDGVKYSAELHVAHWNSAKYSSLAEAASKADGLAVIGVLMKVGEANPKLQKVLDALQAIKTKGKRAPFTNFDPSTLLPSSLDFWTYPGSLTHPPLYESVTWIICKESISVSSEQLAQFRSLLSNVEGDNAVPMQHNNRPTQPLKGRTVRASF

| Compound | Ki (hCA I) [nM] | Ki (MscCA) [nM] | Ki (StCA1) [nM] | Ki (hCA II) [nM] | Ki (hCA VII) [nM] | Ki (StCA2) [nM] | Ki (hCA XIII) [nM] |
| --- | --- | --- | --- | --- | --- | --- | --- |
| CN(C#N)c1ccc(S(N)(=O)=O)cc1 [compound 8, 4-(N-Methylcyanamido)benzenesulfonamide] | 557 | 1580 | 52.7 | 29.2 | 13.8 | 200 | 117 |
| CCCCCCCN(C#N)c1ccc(S(N)(=O)=O)cc1 [compound 12, 4-(N-Heptylcyanamido)benzenesulfonamide] | 38.2 | 7190 | 58.8 | 7.1 | 1.7 | 676 | 31.5 |
| N#CN(c1ccc(S(N)(=O)=O)cc1)C1CCCCC1 [compound 14, 4-(N-Cyclohexylcyanamido)benzenesulfonamide] | 50.6 | 5360 | 69.5 | 82.3 | 1.9 | 579 | 83.8 |
| N#CN(Cc1ccccc1)c1ccc(S(N)(=O)=O)cc1 [compound 16, 4-(N-Benzylcyanamido)benzenesulfonamide] | 67.3 | 9360 | 50.7 | 61.4 | 2 | 692 | 67.8 |
| CCN(C#N)c1ccc(S(N)(=O)=O)cc1 [compound 9, 4-(N-Ethylcyanamido)benzenesulfonamide] | 88.6 | 3150 | 61.5 | 45.3 | 17.9 | 367 | 476 |
| CCCCN(C#N)c1ccc(S(N)(=O)=O)cc1 [compound 10, 4-(N-Butylcyanamido)benzenesulfonamide] | 16.4 | 4480 | 62.7 | 32 | 1.3 | 426 | 70.7 |
| CCCCCCN(C#N)c1ccc(S(N)(=O)=O)cc1 [compound 11, 4-(N-Hexylcyanamido)benzenesulfonamide] | 9.3 | 6880 | 54.6 | 5.3 | 1.5 | 718 | 83 |
| CCCCCCCCCCCCCCCCCCN(C#N)c1ccc(S(N)(=O)=O)cc1 [compound 13, 4-(N-Octadecylcyanamido)benzenesulfonamide] | 17.3 | 9170 | 66.1 | 9.5 | 2.2 | 791 | 155 |
| N#CN(Cc1ccc(Br)cc1)c1ccc(S(N)(=O)=O)cc1 [compound 17, 4-(N-(4-Bromobenzyl)cyanamido)benzenesulfonamide] | 389 | 9590 | 73.1 | 93.3 | 2.4 | 750 | 53.1 |
| C=CCN(C#N)c1ccc(S(N)(=O)=O)cc1 [compound 15, 4-(N-Allylcyanamido)benzenesulfonamide] | 74.7 | 5100 | 51.2 | 54.1 | 2.3 | 645 | 97.7 |
